Among the data in the supplement of paper PMC11616607 are drug sensitivity score values, retold here.

In one assay the test system is CAOV3. Kind of assay: drug sensitivity score (DSS) from 5-point dose-response viability curve (DSS (area-under-curve based score)); higher = more sensitive (stronger growth inhibition or killing); extreme values may be limits of the assay. The note with it: exposure time: 72 h; concentration range: 5 concentrations over 10,000-fold range. Put shortly:
(§1)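 Drug sensitivity scores were calculated in Breeze software for each cell line and drug pair; higher scores indicate more sensitivity. A score of zero indicates no response. The underlying assay used 384-well plates: drugs were placed by an Echo 550 acoustic dispenser at five concentrations spanning a 10,000-fold range, 1,500 ovarian cancer or normal ovarian cells were added per well, and cells were kept 3 days at 37°C, 5% CO2. Viability was then measured with CellTiter-Glo luminescence on a PHERAstar FS.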
Compound `O=C(O)c1ccc2c(c1)nc(Nc1cccc(Cl)c1)c1ccncc12` [Silmitasertib] showed a drug sensitivity score of 8.6.

`CCOc1ccccc1-n1c(C(C)N2CCN(C(=O)COc3ccc(Cl)cc3)CC2)nc2ccccc2c1=O` (stereo unspecified) [Erastin] showed a drug sensitivity score of 0.9.

Compound `CCNCCS(=O)(=O)NC[C@@]1(c2ccccc2)SC(NC(=O)C(C)(C)C)=NN1C(=O)C(C)(C)C` [Litronesib] registered a drug sensitivity score of 23.2.

With `CNC(=O)c1cccc(-c2ccc3c(N4CCOC[C@@H]4C)nc(N4CCOC[C@@H]4C)nc3n2)c1` [Vistusertib], the drug sensitivity score turned out to be 10.2.

With `CC(C)(C)c1cc(NC(=O)Nc2ccc(-c3cn4c(n3)sc3cc(OCCN5CCOCC5)ccc34)cc2)no1` [Quizartinib], the drug sensitivity score was 0.

The compound `N[C@@H]1CCCN(c2c(/C=C3\SC(=O)NC3=O)cccc2-c2ccccc2)C1` [AZD1208] came in with a drug sensitivity score of 0.

The compound `CCc1c2c(nc3ccc(O)cc13)-c1cc3c(c(=O)n1C2)COC(=O)[C@]3(O)CC` [SN-38] displayed a drug sensitivity score of 37.9.

Compound `Cn1cc(-c2ccc(F)c(C(F)(F)F)c2)nc1C1CCN(c2ncnc3[nH]ncc23)CC1` registered a drug sensitivity score of 0.

The compound `C=CC(=O)Nc1cc(Nc2nccc(-c3cn(C)c4ccccc34)n2)c(OC)cc1N(C)CCN(C)C` [Osimertinib] yielded a drug sensitivity score of 5.4.

Compound `COC(=O)c1ccc2c(c1)[nH]c1ncnc(NCCCN3CCCCC3)c12` [UM729] registered a drug sensitivity score of 0.

With `Cc1nc(NC(=O)N2CCC[C@H]2C(N)=O)sc1-c1ccnc(C(C)(C)C(F)(F)F)c1` [Alpelisib], the drug sensitivity score amounted to 3.7.

As to `C[C@H]1CNCCCN1S(=O)(=O)c1cccc2cncc(F)c12` [Ripasudil], the drug sensitivity score worked out at 0.

For the compound `CC(C)(C)C[C@@H]1N[C@@H](C(=O)N[C@H]2CC[C@H](O)CC2)[C@H](c2cccc(Cl)c2F)[C@]12C(=O)Nc1cc(Cl)ccc12`, the drug sensitivity score worked out at 0.

The compound `CON(C)C(=O)N1N=C(c2cc(F)ccc2F)S[C@@]1(CCCN)c1ccccc1` [Filanesib] showed a drug sensitivity score of 21.3.

As for `CN(C)CC#Cc1ccc(OCCCc2sc(N3CCc4cccc(C(=O)Nc5nc6ccccc6s5)c4C3)nc2C(=O)O)c(F)c1`, the drug sensitivity score turned out to be 7.5.

Compound `COc1cc(N2CCC(N3CCN(C)CC3)CC2)ccc1Nc1ncnc(Nc2ccccc2S(=O)(=O)C(C)C)n1` [ASP3026] showed a drug sensitivity score of 6.6.

Compound `CNC(=O)c1ccccc1Nc1cc(Nc2ccc(N3CCOCC3)cc2OC)ncc1C(F)(F)F` [VS-4718] showed a drug sensitivity score of 6.1.

The compound `CC(=O)c1c(C)c2cnc(Nc3ccc(N4CCNCC4)cn3)nc2n(C2CCCC2)c1=O` [Palbociclib] yielded a drug sensitivity score of 0.1.

`CS(=O)(=O)N1CCN(Cc2cc3nc(-c4cccc5[nH]ncc45)nc(N4CCOCC4)c3s2)CC1` [Pictilisib] returned a drug sensitivity score of 9.8.

With `CCS(=O)(=O)N1CC(CC#N)(n2cc(-c3ncnc4[nH]ccc34)cn2)C1` [Baricitinib], the drug sensitivity score is 0.

Consider `O=C(Nc1cnn2ccc(N3CCC[C@@H]3c3cc(F)ccc3F)nc12)N1CC[C@H](O)C1` [Larotrectinib], for which the drug sensitivity score worked out at 0.

`CCN1CCN(Cc2ccc(Nc3ncc(F)c(-c4cc(F)c5nc(C)n(C(C)C)c5c4)n3)nc2)CC1` [Abemaciclib] had a drug sensitivity score of 0.4.

Take `O=C(Nc1ccncc1)C(=O)c1cn(Cc2ccc(Cl)cc2)c2ccccc12` [Indibulin]: the drug sensitivity score came to 7.2.

For the compound `CN(C)C[C@@H]1CCn2cc(c3ccccc32)C2=C(C(=O)NC2=O)c2cn(c3ccccc23)CCO1` [Ruboxistaurin], the drug sensitivity score stood at 7.

`C[C@H](Nc1ncnc2[nH]cnc12)c1cc2ccc(F)cc2nc1-c1ccccn1` [AMG319] yielded a drug sensitivity score of 0.

`CC(C)(C)c1cc(NC(=O)Nc2ccc(Oc3ccnc4[nH]c(=O)cnc34)cc2F)n(-c2ccccc2)n1` registered a drug sensitivity score of 2.8.

On to `CCn1cc(-c2ccnc3[nH]c(-c4cccc(CN(C)C)c4)cc23)c(-c2ccc(NC(=O)N(C)C)cc2)n1`, for which the drug sensitivity score turned out to be 17.

The compound `CCCCCCCCc1ccc(CCC(N)(CO)CO)cc1` [Fingolimod] yielded a drug sensitivity score of 6.

For the compound `C1=N/C2=N/c3ccc(OCCN4CCCC4)c(c3)COC/C=C/COCc3cccc(c3)C(=C1)N2` [Pacritinib], the drug sensitivity score was 7.6.

For the compound `Nc1ccccc1NC(=O)c1ccc(CNc2nccc(-c3cccnc3)n2)cc1` [Mocetinostat], the drug sensitivity score worked out at 7.1.

On to `N#CC1(c2ccc(NC(=O)c3cccnc3NCc3ccncc3)cc2)CCCC1` [Apatinib], for which the drug sensitivity score was 0.

The next assay deals with COV318. Described as above. The note with it: exposure time: 72 h; concentration range: 5 concentrations over 10,000-fold range. An outline of the steps: as §1
`O=C(O)c1ccc2c(c1)nc(Nc1cccc(Cl)c1)c1ccncc12` [Silmitasertib] came in with a drug sensitivity score of 3.2.

`CCOc1ccccc1-n1c(C(C)N2CCN(C(=O)COc3ccc(Cl)cc3)CC2)nc2ccccc2c1=O` (stereo unspecified) [Erastin]: the drug sensitivity score came to 1.9.

Consider `CCNCCS(=O)(=O)NC[C@@]1(c2ccccc2)SC(NC(=O)C(C)(C)C)=NN1C(=O)C(C)(C)C` [Litronesib], for which the drug sensitivity score came out at 3.4.

`CNC(=O)c1cccc(-c2ccc3c(N4CCOC[C@@H]4C)nc(N4CCOC[C@@H]4C)nc3n2)c1` [Vistusertib] came in with a drug sensitivity score of 10.

`CC(C)(C)c1cc(NC(=O)Nc2ccc(-c3cn4c(n3)sc3cc(OCCN5CCOCC5)ccc34)cc2)no1` [Quizartinib] showed a drug sensitivity score of 0.

With `N[C@@H]1CCCN(c2c(/C=C3\SC(=O)NC3=O)cccc2-c2ccccc2)C1` [AZD1208], the drug sensitivity score is 1.1.

`CCc1c2c(nc3ccc(O)cc13)-c1cc3c(c(=O)n1C2)COC(=O)[C@]3(O)CC` [SN-38]: the drug sensitivity score was 13.8.

As to `Cn1cc(-c2ccc(F)c(C(F)(F)F)c2)nc1C1CCN(c2ncnc3[nH]ncc23)CC1`, the drug sensitivity score is 0.

Consider `C=CC(=O)Nc1cc(Nc2nccc(-c3cn(C)c4ccccc34)n2)c(OC)cc1N(C)CCN(C)C` [Osimertinib], for which the drug sensitivity score was 1.3.

For the compound `COC(=O)c1ccc2c(c1)[nH]c1ncnc(NCCCN3CCCCC3)c12` [UM729], the drug sensitivity score turned out to be 0.

Take `Cc1nc(NC(=O)N2CCC[C@H]2C(N)=O)sc1-c1ccnc(C(C)(C)C(F)(F)F)c1` [Alpelisib]: the drug sensitivity score stood at 0.5.

`C[C@H]1CNCCCN1S(=O)(=O)c1cccc2cncc(F)c12` [Ripasudil] had a drug sensitivity score of 0.

Compound `CC(C)(C)C[C@@H]1N[C@@H](C(=O)N[C@H]2CC[C@H](O)CC2)[C@H](c2cccc(Cl)c2F)[C@]12C(=O)Nc1cc(Cl)ccc12` gave a drug sensitivity score of 0.3.

Take `CON(C)C(=O)N1N=C(c2cc(F)ccc2F)S[C@@]1(CCCN)c1ccccc1` [Filanesib]: the drug sensitivity score worked out at 8.7.

For `CN(C)CC#Cc1ccc(OCCCc2sc(N3CCc4cccc(C(=O)Nc5nc6ccccc6s5)c4C3)nc2C(=O)O)c(F)c1`, the drug sensitivity score worked out at 1.3.
